Measurements as given in patent US12297294B2, “Cortistatin analogues for the treatment of inflammatory and/or immune diseases” (BCN PEPTIDES, S.A., priority 2013, dated 2025).
Where a SMILES comes first, the peptide text is derived from it. Bridges are numbered along the chain shown (N, C = ends).

Tests used:
[1] = system: acute colitis induced by Dextran sulfate sodium (DSS); experiment: Experimental model of ulcerative colitis (DSS-induced acute colitis); assay type: in vivo, C57Bl/6 male mice
Protocol: 7-8 week old C57Bl/6 male mice were used. They were given voluntary drinking water with 5% of Dextran sulfate sodium (DSS) from day 0 to day 7 of the study in order to induce acute colitis. Animals in the control group were supplied with normal water. […] CST was used as a reference product. The severity of the colitis was assessed daily using a scale of values from 0 to 4 indicating the clinical disease activity index considering stool consistency, the presence of bloody stools and weight loss. Mice were sacrificed on day 8 of the study and after the necropsy the extent of macroscopic damage was established in the colon using a scale from 0 to 8. […] The average weight of the sick mice's colons was 763 mg, the average weight of the colons of the sick mice treated with CST was 621 mg and that of the colons of the sick mice treated with the new cortistatin analogues was between 614-621 mg, indicating a reduction of the inflammation of the colon.

[2] = Serum stability in 90% human serum at 37° C., RP-HPLC; assay type: in vitro ADME
Protocol: The new compounds were incubated with 90% human serum at 37° C. Aliquots were extracted at different incubation times. Methanol was added to precipitate the proteins from the serum, it was centrifuged and the supernatant was subject to a chromatographic analysis using RP-HPLC (Gradient: 20-80% B in 30 min, B=0.07% TFA in acetonitrile). The disappearance of the initial product was analyzed using the area corresponding to the initial product and half-life time was calculated.

C[C@@H](O)[C@@H]1NC(=O)[C@H](CCCCN)NC(=O)[C@H](Cc2c[nH]c3ccccc23)NC(=O)[C@H](Cc2ccccc2)NC(=O)[C@H](Cc2ccccc2)NC(=O)[C@H](CC(N)=O)NC(=O)[C@H](CCCCN)NC(=O)[C@@H](NC(=O)[C@@H]2CCCN2)CSSC[C@@H](C(=O)N[C@@H](CCCCN)C(=O)O)NC(=O)[C@H](CO)NC(=O)[C@H](CO)NC(=O)[C@H](Cc2ccccc2)NC1=O [cortistatin] (H-PCKNFFWKTFSSCK-OH; disulfide 2-13)
clinical disease activity index (0-4) ([1]; 5% DSS, 0.4 mg/Kg s.c. days 1, 2 and 3, diseased group 3.7): 1-1.5 | average weight of colon ([1]; necropsy day 8, sick mice 763 mg): 621 mg | macroscopic grade of colitis (0-8) ([1]; necropsy day 8, sick mice 6.6): 0.87 | half-life [2]: 2 min
